The term IC50 denotes the point on the concentration scale where inhibition reaches its midpoint. A lower IC50 goes with greater potency in that assay.

Molecules are shown by their SMILES. The source made the active and inactive calls. The rule behind the calls is not given here.

The test system of data set [1] is Leishmania donovani. Briefly: Antileishmanial activity against Leishmania donovani MHOM/IN/1983/AG83 promastigotes transformed from splenic intracellular amastigotes of infected BALB/c mouse after 48 hrs by MTT assay. The format is functional, organism-based. The conditions noted are these: MHOM/IN/1983/AG83, 48 h.
For data set [2], the system named is Leishmania donovani. Briefly: Antileishmanial activity against Leishmania donovani MHOM/IN/1983/AG83 promastigotes transformed from splenic intracellular amastigotes of infected BALB/c mouse assessed as parasite survival at 8 uM after 48 hrs by MTT assay (reference value: 100%). It counts as functional. The conditions noted are these: MHOM/IN/1983/AG83, 48 h. (In general: Tetrazolium dyes change colour on reduction, which living cells bring about.)

Data set [3] has as its system Leishmania donovani. Briefly: Antileishmanial activity against Leishmania donovani MHOM/IN/1983/AG83 promastigotes transformed from splenic intracellular amastigotes of infected BALB/c mouse assessed as parasite survival at 16 uM after 48 hrs by MTT assay (reference value: 100%). The note with it: MHOM/IN/1983/AG83, 48 h. The format is functional.
The test system of data set [4] is Leishmania donovani. Briefly: Antileishmanial activity against Leishmania donovani MHOM/IN/1983/AG83 promastigotes transformed from splenic intracellular amastigotes of infected BALB/c mouse assessed as parasite survival at 32 uM after 48 hrs by MTT assay (reference value: 100%). It counts as functional. The note with it: MHOM/IN/1983/AG83, 48 h.
The subject of data set [5] is Leishmania donovani. Briefly: Antileishmanial activity against Leishmania donovani MHOM/IN/1983/AG83 promastigotes transformed from splenic intracellular amastigotes of infected BALB/c mouse after 48 hrs by […]. The note with it: MHOM/IN/1983/AG83, 48 h. The format is functional, organism-based.
Data set [6] deals with Leishmania donovani. Briefly: Cell cycle arrest in Leishmania donovani MHOM/IN/1983/AG83 promastigotes transformed from splenic intracellular amastigotes of infected BALB/c mouse assessed as accumulation at sub-G0/G1 phase at IC50 after 48 hrs by propidium iodide staining-based flow cytometric analysis (reference value: 2.61 +/- 0.33%). The format is functional. For orientation: Flow cytometry measures light scatter and fluorescence of single cells or particles in a stream.

Data set [7] deals with Leishmania donovani. Briefly: Cell cycle arrest in Leishmania donovani MHOM/IN/1983/AG83 promastigotes transformed from splenic intracellular amastigotes of infected BALB/c mouse assessed as accumulation at sub-G0/G1 phase at IC50 after 24 hrs by propidium iodide staining-based flow cytometric analysis (reference value: 2.61 +/- 0.33%). It counts as functional.
Data set [8] has as its system Leishmania donovani. Briefly: Cell cycle arrest in Leishmania donovani MHOM/IN/1983/AG83 promastigotes transformed from splenic intracellular amastigotes of infected BALB/c mouse assessed as accumulation at G0/G1 phase at IC50 after 48 hrs by propidium iodide staining-based flow cytometric analysis (reference value: 81.06%). The format is functional.
Data set [9] concerns Leishmania donovani. Briefly: Cell cycle arrest in Leishmania donovani MHOM/IN/1983/AG83 promastigotes transformed from splenic intracellular amastigotes of infected BALB/c mouse assessed as accumulation at sub-G0/G1 phase at IC50 by propidium iodide staining-based flow cytometric analysis. The format is functional, organism-based. The note with it: TDE = time-dependent effect.

Data set [10] relates to Leishmania donovani. Briefly: Induction of ROS generation in Leishmania donovani MHOM/IN/1983/AG83 promastigotes transformed from splenic intracellular amastigotes of infected BALB/c mouse at IC50 by H2DCFDA probe-based flow cytometric analysis. The format is functional, organism-based. The note with it: TDE = time-dependent effect.
For data set [11], the system named is Leishmania donovani. Briefly: Induction of apoptosis in Leishmania donovani MHOM/IN/1983/AG83 promastigotes transformed from splenic intracellular amastigotes of infected BALB/c mouse assessed as viable cells at 15 uM after 24 hrs by Annexin V-PE/7-AAD staining-based flow cytometric analysis relative to control. The format is functional.
Data set [12] deals with Leishmania donovani. Briefly: Induction of apoptosis in Leishmania donovani MHOM/IN/1983/AG83 promastigotes transformed from splenic intracellular amastigotes of infected BALB/c mouse assessed as early apoptotic cells at 15 uM after 24 hrs by Annexin V-PE/7-AAD staining-based flow cytometric analysis relative to control. The format is functional.
For data set [13], the system named is Leishmania donovani. Briefly: Induction of apoptosis in Leishmania donovani MHOM/IN/1983/AG83 promastigotes transformed from splenic intracellular amastigotes of infected BALB/c mouse assessed as late apoptotic cells at 15 uM after 24 hrs by Annexin V-PE/7-AAD staining-based flow cytometric analysis relative to control. The format is functional.
Data set [14] has as its system Leishmania donovani. Briefly: Induction of apoptosis in Leishmania donovani MHOM/IN/1983/AG83 promastigotes transformed from splenic intracellular amastigotes of infected BALB/c mouse assessed as necrotic cells at 15 uM after 24 hrs by Annexin V-PE/7-AAD staining-based flow cytometric analysis relative to control. It counts as functional.
The test system of data set [15] is Leishmania donovani. Briefly: Induction of apoptosis in Leishmania donovani MHOM/IN/1983/AG83 promastigotes transformed from splenic intracellular amastigotes of infected BALB/c mouse assessed as viable cells at 15 uM after 48 hrs by Annexin V-PE/7-AAD staining-based flow cytometric analysis (reference value: 84.97%). The format is functional.
Data set [16] concerns Leishmania donovani. Briefly: Induction of apoptosis in Leishmania donovani MHOM/IN/1983/AG83 promastigotes transformed from splenic intracellular amastigotes of infected BALB/c mouse assessed as early apoptotic cells at 15 uM after 48 hrs by Annexin V-PE/7-AAD staining-based flow cytometric analysis (reference value: 10.98 +/- 1.22%). It counts as functional.
Data set [17] concerns Leishmania donovani. Briefly: Induction of apoptosis in Leishmania donovani MHOM/IN/1983/AG83 promastigotes transformed from splenic intracellular amastigotes of infected BALB/c mouse assessed as late apoptotic cells at 15 uM after 48 hrs by Annexin V-PE/7-AAD staining-based flow cytometric analysis (reference value: 2.55 +/- 0.49%). The format is functional.
The test system of data set [18] is Leishmania donovani. Briefly: Induction of apoptosis in Leishmania donovani MHOM/IN/1983/AG83 promastigotes transformed from splenic intracellular amastigotes of infected BALB/c mouse assessed as necrotic cells at 15 uM after 48 hrs by Annexin V-PE/7-AAD staining-based flow cytometric analysis (reference value: 1.51%). The format is functional.
The test system of data set [19] is Leishmania donovani. Briefly: Induction of apoptosis in Leishmania donovani MHOM/IN/1983/AG83 promastigotes transformed from splenic intracellular amastigotes of infected BALB/c mouse assessed as chromatin condensation after 48 hrs by DAPI staining-based confocal laser scanning microscopic analysis. It counts as functional, organism-based.
The test system of data set [20] is Leishmania donovani. Briefly: Induction of apoptosis in Leishmania donovani MHOM/IN/1983/AG83 promastigotes transformed from splenic intracellular amastigotes of infected BALB/c mouse assessed as nuclei blebbing after 48 hrs by DAPI staining-based confocal laser scanning microscopic analysis. The format is functional, organism-based.
In data set [21] the test system is Leishmania donovani. Briefly: Induction of apoptosis in Leishmania donovani MHOM/IN/1983/AG83 promastigotes transformed from splenic intracellular amastigotes of infected BALB/c mouse assessed as accumulation of lipid droplets in cytoplasm after 48 hrs by Nile red staining-based confocal laser scanning microscopic analysis. The format is functional, organism-based.

Data set [22] deals with Leishmania donovani. Briefly: Antileishmanial activity against Leishmania donovani MHOM/IN/1983/AG83 amastigotes infected in BALB/c mouse peritoneal macrophages at 1 uM after 48 hrs by phase contrast microscopic analysis relative to control. The format is functional.
Data set [23] deals with Leishmania donovani. Briefly: Induction of nitric oxide generation in Leishmania donovani MHOM/IN/1983/AG83 amastigotes infected in BALB/c mouse peritoneal macrophages at IC50 by Griess reagent based analysis relative to control. The format is functional. (The Griess reaction detects nitrite, a stable product of nitric oxide.)
A short description of data set [24]: Cytotoxicity against PHA-stimulated mouse splenocytes assessed as cell survival at 8 uM after 96 hrs by MTT assay (reference value: 100%). The format is cell-based, Splenocyte. The note with it: read-out: Survival.
Data set [25] in a line: Cytotoxicity against PHA-stimulated mouse splenocytes assessed as cell survival at 16 uM after 96 hrs by MTT assay (reference value: 100%). The format is cell-based, Splenocyte. The conditions noted are these: read-out: Survival.
Data set [26] is described as follows: Cytotoxicity against PHA-stimulated mouse splenocytes assessed as cell survival at 32 uM after 96 hrs by MTT assay (reference value: 100%). The format is cell-based, Splenocyte. The note with it: read-out: Survival.
A short description of data set [27]: Cytotoxicity against PHA-stimulated mouse splenocytes assessed as cell survival at 64 uM after 96 hrs by MTT assay (reference value: 100%). The note with it: read-out: Survival. It counts as cell-based, Splenocyte.
A short description of data set [28]: Cytotoxicity against PHA-stimulated mouse splenocytes assessed as cell survival at 128 uM after 96 hrs by MTT assay (reference value: 100%). It counts as cell-based, Splenocyte. The note with it: read-out: Survival.
In data set [29] the test system is Leishmania donovani. Briefly: Antileishmanial activity against Leishmania donovani MHOM/IN/1983/AG83 promastigotes transformed from splenic intracellular amastigotes of infected BALB/c mouse assessed as parasite survival at 64 uM after 48 hrs by MTT assay (reference value: 100%). The conditions noted are these: MHOM/IN/1983/AG83, 48 h. It counts as functional.

Data set [30] relates to Leishmania donovani. Briefly: Antileishmanial activity against Leishmania donovani MHOM/IN/1983/AG83 promastigotes transformed from splenic intracellular amastigotes of infected BALB/c mouse assessed as parasite survival at 128 uM after 48 hrs by MTT assay (reference value: 100%). It counts as functional. The note with it: MHOM/IN/1983/AG83, 48 h.
Data set [31] deals with Leishmania donovani. Briefly: Induction of ROS generation in Leishmania donovani MHOM/IN/1983/AG83 promastigotes transformed from splenic intracellular amastigotes of infected BALB/c mouse at IC50 measured at 6 hrs by H2DCFDA probe-based flow cytometric analysis relative to control. It counts as functional.
In data set [32] the test system is Leishmania donovani. Briefly: Induction of apoptosis in Leishmania donovani MHOM/IN/1983/AG83 promastigotes transformed from splenic intracellular amastigotes of infected BALB/c mouse assessed as early apoptotic cells at 15 uM by Annexin V-PE/7-AAD staining-based flow cytometric analysis. The format is functional, organism-based. The note with it: TDE = time-dependent effect.

Data set [33] deals with Leishmania donovani. Briefly: Induction of apoptosis in Leishmania donovani MHOM/IN/1983/AG83 promastigotes transformed from splenic intracellular amastigotes of infected BALB/c mouse assessed as late apoptotic cells at 15 uM by Annexin V-PE/7-AAD staining-based flow cytometric analysis. It counts as functional, organism-based. The conditions noted are these: TDE = time-dependent effect.

As to `COc1ccc(CN2C(=O)C(=C(c3ccc(O)cc3)c3ccc(O)cc3)c3cc(/C=C/c4ccc(F)c(F)c4)ccc32)cc1`, the IC50 in [1] is 220 µM. In addition, the survival at 8 µM in data set [2] stood at 97.5%. For the same compound, in data set [3], the survival at 16 µM worked out at 96%. The survival at 32 µM in data set [4] turned out to be 93.2%.
For the compound `CCCCCCCCCCCCCCCCOP(=O)([O-])OCC[N+](C)(C)C` [MILTEFOSINE], the IC50 in data set [1] and in data set [5] was 21 µM each time.
For the compound `COc1ccc(CN2C(=O)C(=C(c3ccc(O)cc3)c3ccc(O)cc3)c3cc(/C=C/c4ccc(C)c(C)c4)ccc32)cc1`, inhibition in [1] was half-maximal at 225 µM (IC50). Further, in data set [2], the survival at 8 µM was 97.2%. Also, the survival at 16 µM in [3] worked out at 95.5%. In data set [4], the survival at 32 µM was 93.7%.
The matching figures for `COc1ccc(CN2C(=O)C(=C(c3ccc(O)cc3)c3ccc(O)cc3)c3cc(/C=C/c4ccc(OC)c(OC)c4)ccc32)cc1`: 31 µM, 79.2%, 70.6% and 53.7%.
In data set [1], `O=C1C(=C(c2ccc(O)cc2)c2ccc(O)cc2)c2cc(/C=C/c3ccc(O)c(O)c3)ccc2N1Cc1ccc(O)cc1` returned an IC50 of 15 µM. The Activity in data set [6] is 8.86%; in data set [7], 6.79 - 6.97%; in data set [8] it was 71.37%; in data set [9] it was “Tde”; in [10], “Tde”; in data set [11] it was 45.2%. For the same compound, the Activity is 35.01% in [12]; 14.76% in data set [13]; 5.03% in data set [14]; 38.43% in data set [15]; 42.08% in data set [16]; 15.39% in data set [17]. The Activity in data set [18] was 4.09%; in data set [22] it was 50%; in [32] it was “Tde”; in data set [33], “Tde”. Moreover, the result in data set [19], in [20] and in data set [21] was Active. Also, the “fold change (FC)” value in [23] is 3; in data set [31], over 3. In addition, the viability at 96 h, 8 µM in data set [24] was 96.6%. For the same compound, the viability at 96 h, 16 µM in [25] amounted to 92.3%. Further, the viability at 96 h, 32 µM in data set [26] was 90.5%. The viability at 96 h, 64 µM in [27] is 87.3%. Further, the viability at 96 h, 128 µM in [28] amounted to 85.2%. Moreover, the survival at 8 µM in data set [2] worked out at 96.2%. The survival at 16 µM in [3] worked out at 46.7%. Further, the survival at 32 µM in data set [4] came out at 31.6%. In data set [29], the survival at 64 µM was 17.9%. Moreover, the survival at 128 µM in [30] amounted to 5.42%.
On to `COc1ccc(CN2C(=O)C(=C(c3ccc(O)cc3)c3ccc(O)cc3)c3ccccc32)cc1`, for which, in data set [1], 47.2 µM corresponded to half-maximal inhibition (IC50). For the same compound, the survival at 8 µM in data set [2] was determined as 96.4%. The survival at 16 µM in [3] turned out to be 81%. Besides, in data set [4], the survival at 32 µM is 66.1%.
The matching figures for `O=C1C(=C(c2ccc(O)cc2)c2ccc(O)cc2)c2ccccc2N1Cc1ccc(O)cc1`: 200 µM, 98.3%, 96.7% and 92%.
